Key:
[1] = (§1) The drug is tested on Z-029 corresponding to rat gut metagenome with ENA study accession number: PRJEB37062 and ENA sample accession number: ERS12561828 for biotransformation under anaerobic condition. The drug concentrations were measured over 9 timepoints collected between 0 and 24 hours of incubation by liquid-chromatography-coupled mass spectrometry (LC–MS); conditions: 2 µM
[2] = as §1, with “on Z-024” for “on Z-029”, “to pig” for “to rat”, “number: ERS12561823” for “number: ERS12561828”; conditions: 2 µM
[3] = as §1, with “Z-023” for “Z-029”, “to” for “to rat gut”, “ERS12561822” for “ERS12561828”; conditions: 2 µM
[4] = as §1, with “Z-012” for “Z-029”, “to” for “to rat gut”, “ERS12561812” for “ERS12561828”; conditions: 2 µM
[5] = as §1, with “Z-008” for “Z-029”, “to” for “to rat gut”, “ERS12561808” for “ERS12561828”; conditions: 2 µM
[6] = as §1, with “Z-007” for “Z-029”, “ERS12561807” for “ERS12561828”; conditions: 2 µM
[7] = as §1, with “on Z-003” for “on Z-029”, “to pig” for “to rat”, “number: ERS12561803” for “number: ERS12561828”; conditions: 2 µM
[8] = as §1, with “on WLS-350” for “on Z-029”, “to human” for “to rat”, “number: ERS12561789” for “number: ERS12561828”; conditions: 2 µM
[9] = as §1, with “on WLS-086” for “on Z-029”, “to human” for “to rat”, “number: ERS12561752” for “number: ERS12561828”; conditions: 2 µM
[10] = as §1, with “on WLS-069” for “on Z-029”, “to human” for “to rat”, “number: ERS12561748” for “number: ERS12561828”; conditions: 2 µM
[11] = human gut metagenome, 24 h, 2 µM
[12] = human gut metagenome, 24 h, 2 µM; remark: listed apart in the source
[13] = human gut metagenome, 24 h, 2 µM; remark: listed apart in the source
[14] = human gut metagenome, 24 h, 2 µM; remark: listed apart in the source
[15] = human gut metagenome, 24 h, 2 µM; remark: listed apart in the source
[16] = human gut metagenome, 24 h, 2 µM; remark: listed apart in the source
[17] = human gut metagenome, 24 h, 2 µM; remark: listed apart in the source
[18] = human gut metagenome, 24 h, 2 µM; remark: listed apart in the source
[19] = human gut metagenome, 24 h, 2 µM; remark: listed apart in the source
[20] = human gut metagenome, 24 h, 2 µM; remark: listed apart in the source
Also: call rule not given here.

SMILES | Bacterial Biotransformation [1] | Bacterial Biotransformation [2] | Bacterial Biotransformation [3] | Bacterial Biotransformation [4] | Bacterial Biotransformation [5] | Bacterial Biotransformation [6] | Bacterial Biotransformation [7] | Bacterial Biotransformation [8] | Bacterial Biotransformation [9] | Bacterial Biotransformation [10] | Bacterial Biotransformation [11] | Bacterial Biotransformation [12] | Bacterial Biotransformation [13] | Bacterial Biotransformation [14] | Bacterial Biotransformation [15] | Bacterial Biotransformation [16] | Bacterial Biotransformation [17] | Bacterial Biotransformation [18] | Bacterial Biotransformation [19] | Bacterial Biotransformation [20]
C[C@@H]1CC[C@H]2[C@@H](C)C(=O)O[C@@H]3O[C@@]4(C)CC[C@@H]1[C@]32OO4 [ARTEMISININ] | Compound metabolized | Compound metabolized | Compound metabolized | – | – | – | – | – | Compound metabolized | Compound metabolized | Compound metabolized | Compound metabolized | Compound metabolized | Compound metabolized | Compound metabolized | Compound metabolized | Compound metabolized | Compound metabolized | – | Compound metabolized
COc1c2occc2cc2ccc(=O)oc12 [METHOXSALEN] | Compound NOT metabolized | Compound metabolized | Compound metabolized | Compound metabolized | Compound metabolized | Compound NOT metabolized | Compound metabolized | Compound metabolized | Compound metabolized | Compound metabolized | – | Compound metabolized | Compound metabolized | Compound metabolized | Compound metabolized | Compound metabolized | Compound metabolized | Compound metabolized | – | –
Cc1nc2n(c(=O)c1CCN1CCC(c3noc4cc(F)ccc34)CC1)CCCC2 [RISPERIDONE] | Compound NOT metabolized | Compound metabolized | Compound metabolized | Compound metabolized | Compound metabolized | Compound metabolized | Compound metabolized | – | Compound metabolized | Compound metabolized | Compound NOT metabolized | Compound metabolized | Compound metabolized | Compound metabolized | Compound metabolized | Compound metabolized | Compound metabolized | Compound metabolized | Compound metabolized | Compound NOT metabolized

Continued, values first:

Bacterial Biotransformation [1] | Bacterial Biotransformation [2] | Bacterial Biotransformation [3] | Bacterial Biotransformation [4] | Bacterial Biotransformation [5] | Bacterial Biotransformation [6] | Bacterial Biotransformation [7] | Bacterial Biotransformation [8] | Bacterial Biotransformation [9] | Bacterial Biotransformation [10] | Bacterial Biotransformation [11] | Bacterial Biotransformation [12] | Bacterial Biotransformation [13] | Bacterial Biotransformation [14] | Bacterial Biotransformation [15] | Bacterial Biotransformation [16] | Bacterial Biotransformation [17] | Bacterial Biotransformation [18] | Bacterial Biotransformation [19] | Bacterial Biotransformation [20] | SMILES
Compound NOT metabolized | Compound metabolized | Compound metabolized | Compound metabolized | Compound NOT metabolized | Compound metabolized | Compound metabolized | Compound metabolized | Compound metabolized | Compound metabolized | Compound metabolized | Compound metabolized | Compound metabolized | Compound metabolized | Compound metabolized | Compound NOT metabolized | Compound metabolized | Compound metabolized | Compound metabolized | Compound metabolized | CCOC(=O)[C@H](CCc1ccccc1)N[C@@H](C)C(=O)N1[C@H](C(=O)O)C[C@@H]2CCC[C@@H]21
Compound NOT metabolized | Compound metabolized | Compound metabolized | – | Compound metabolized | – | Compound metabolized | – | Compound metabolized | Compound metabolized | – | – | – | – | – | – | Compound NOT metabolized | – | – | Compound metabolized | C#C[C@]1(O)CC[C@H]2[C@@H]3CCC4=Cc5oncc5C[C@]4(C)[C@H]3CC[C@@]21C [DANAZOL]
Compound NOT metabolized | Compound metabolized | Compound metabolized | Compound NOT metabolized | Compound NOT metabolized | Compound NOT metabolized | Compound NOT metabolized | Compound NOT metabolized | Compound NOT metabolized | Compound NOT metabolized | Compound NOT metabolized | Compound metabolized | Compound metabolized | – | Compound metabolized | Compound NOT metabolized | Compound NOT metabolized | Compound NOT metabolized | Compound NOT metabolized | Compound NOT metabolized | CC[C@H](C)C(=O)O[C@H]1C[C@@H](C)C=C2C=C[C@H](C)[C@H](CC[C@@H]3C[C@@H](O)CC(=O)O3)[C@H]21 [LOVASTATIN]
Compound NOT metabolized | Compound NOT metabolized | Compound NOT metabolized | Compound NOT metabolized | Compound NOT metabolized | Compound NOT metabolized | Compound NOT metabolized | Compound NOT metabolized | Compound NOT metabolized | Compound NOT metabolized | Compound NOT metabolized | Compound NOT metabolized | – | Compound NOT metabolized | Compound NOT metabolized | Compound NOT metabolized | Compound NOT metabolized | Compound NOT metabolized | Compound NOT metabolized | Compound NOT metabolized | CN(C)CCc1c[nH]c2ccc(Cn3cncn3)cc12.O=C(O)c1ccccc1 [RIZATRIPTAN BENZOATE]
Compound metabolized | Compound NOT metabolized | Compound NOT metabolized | Compound metabolized | Compound metabolized | Compound metabolized | Compound metabolized | Compound NOT metabolized | Compound metabolized | Compound metabolized | Compound NOT metabolized | Compound metabolized | Compound metabolized | Compound metabolized | Compound metabolized | Compound metabolized | Compound metabolized | – | – | Compound metabolized | COc1ccc2[nH]c([S+]([O-])Cc3ncc(C)c(OC)c3C)nc2n1 (stereo not given) [TENATOPRAZOLE]

Reference: ChEMBL document CHEMBL5724914, “Linking interpersonal differences in gut microbiota composition and drug biotransformation activity” (2024)
